This is an account of results in patent publication US12221656B2, “Methods and materials for assessing homologous recombination deficiency” (Myriad Genetics, Inc., priority 2014, dated 2025).

Molecules are shown by their SMILES.

The experiment concerns triple negative breast cancer (TNBC). The experiment can be described thus: Neoadjuvant cisplatin cohort, pathologic response in triple negative breast cancer. It is filed as in vivo, human. The following applies: for Pathologic complete response (pCR = yes), % response / Pathologic response (PR = yes), % response: secondary analysis, n=51. The protocol:
Analysis of a neoadjuvant TNBC cohort treated with cisplatin was examined relative to the relationship between all three HRD scores and response. All p values were from logistic regression models with response to cisplatin as the dependent variable.
HR Deficiency status was determined for 62 of the 70 samples (70 individual patients) received from a cisplatin cohort (8 had insufficient tumors for analysis). Of these, 31 (50%) were HR deficient, 22 (35%) were non-HR deficient, and 9 (15%) were undetermined. FIG. 15 provides a histogram showing the distribution of HRD scores in the cohort. […] were considered to have high HRD (see also, Example 5). […] Pathologic complete response (pCR), which is associated with long-term survival, was defined as a residual cancer burden (RBC) of 0 and observed in 11/59 (19%) samples. […] These overall response rates correlated with monotherapy expectations.
Statistical analyses followed a predefined Statistical Analysis Plan (SAP), which included primary, secondary, and BRCA wild-type subset analyses.

On to `N.N.[Cl][Pt][Cl]` [cisplatin], for which, for the setting “BRCA Mutant”, the “Pathologic complete response (pCR = yes), % response” value was 3 (33.3%) and the “Pathologic response (PR = yes), % response” value is reported as 5 (55.6%). In addition, under “BRCA Non-mutant”, the “Pathologic complete response (pCR = yes), % response” value is 5 (11.9%) and the “Pathologic response (PR = yes), % response” value is recorded as 13 (31.0%). Further, the “Pathologic complete response (pCR), residual cancer burden of 0” value (whole cisplatin cohort, 11/59 samples) came out at 19%. Also, the “Pathologic response (PR), residual cancer burden of 0 or 1” value (whole cisplatin cohort, 22/59 samples) came out at 37%.
